# Reference: publication PMC8743659, “C1632 suppresses the migration and proliferation of non‐small‐cell lung cancer cells involving LIN28 and FGFR1 pathway” (Journal of Cellular and Molecular Medicine, 2021)
# Columns and labels:
# CYP2B1 = target: T1, CYP2B1 (Rattus norvegicus, UniProt P00176); assay: Microsomal incubation (cocktail) assay, rat liver microsomes; type: in vitro ADME; settings: 100 μM C1632, probe 10 μM bupropion, 30 min, 37°C
# T1 construct: 3.4 mg/ml pooled rat liver microsomes; from tissue; host or cells: pooled rat liver microsomes
# T1 sequence (P00176 1-491): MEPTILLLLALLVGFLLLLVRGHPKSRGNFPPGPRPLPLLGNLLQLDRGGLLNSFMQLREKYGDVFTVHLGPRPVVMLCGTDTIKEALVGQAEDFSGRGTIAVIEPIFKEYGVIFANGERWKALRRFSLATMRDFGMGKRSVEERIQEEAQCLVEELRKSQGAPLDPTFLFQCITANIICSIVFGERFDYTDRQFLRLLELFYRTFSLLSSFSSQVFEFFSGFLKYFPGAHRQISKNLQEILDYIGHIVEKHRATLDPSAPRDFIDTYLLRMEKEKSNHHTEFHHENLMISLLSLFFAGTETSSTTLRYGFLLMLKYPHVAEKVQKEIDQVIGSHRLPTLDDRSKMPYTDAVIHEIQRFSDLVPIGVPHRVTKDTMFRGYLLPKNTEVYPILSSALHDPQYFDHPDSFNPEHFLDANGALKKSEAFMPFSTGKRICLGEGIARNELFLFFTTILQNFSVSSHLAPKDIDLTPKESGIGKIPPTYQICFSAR
# Description: (§1) The microsomal incubation assay[41] was performed at 37°C in a 200 μl incubation system, which consisted of 3.4 mg/ml pooled rat liver microsomes, 100 μM C1632, and probe substrates (5 μM CYP3A2‐midazolam; 10 μM CYP2D1‐dextromethorphan; 250 μM CYP2C11‐tolbutamide; 10 μM CYP2B1‐bupropion; and 0.1 M Tris–HCl [pH 7.4]). After 5 min of incubation, 1 mM NADPH was added, and the assay was terminated after 30 min by cooling at −80°C. Next, 0.2 ml acetonitrile and 20 μl IS (100 ng/ml) were added to the reactant. Finally, the solution was thoroughly vortexed and centrifuged at 12,000 rpm for 10 min. The supernatant was analysed by UHPLC‐MS/MS.[42]
# CYP2C11 = target: T2, CYP2C11 (Rattus norvegicus, UniProt P08683); assay: as above; type: in vitro ADME; settings: 100 μM C1632, probe 250 μM tolbutamide, 30 min, 37°C
# T2 construct: 3.4 mg/ml pooled rat liver microsomes; from tissue; host or cells: pooled rat liver microsomes
# T2 sequence (P08683 1-500): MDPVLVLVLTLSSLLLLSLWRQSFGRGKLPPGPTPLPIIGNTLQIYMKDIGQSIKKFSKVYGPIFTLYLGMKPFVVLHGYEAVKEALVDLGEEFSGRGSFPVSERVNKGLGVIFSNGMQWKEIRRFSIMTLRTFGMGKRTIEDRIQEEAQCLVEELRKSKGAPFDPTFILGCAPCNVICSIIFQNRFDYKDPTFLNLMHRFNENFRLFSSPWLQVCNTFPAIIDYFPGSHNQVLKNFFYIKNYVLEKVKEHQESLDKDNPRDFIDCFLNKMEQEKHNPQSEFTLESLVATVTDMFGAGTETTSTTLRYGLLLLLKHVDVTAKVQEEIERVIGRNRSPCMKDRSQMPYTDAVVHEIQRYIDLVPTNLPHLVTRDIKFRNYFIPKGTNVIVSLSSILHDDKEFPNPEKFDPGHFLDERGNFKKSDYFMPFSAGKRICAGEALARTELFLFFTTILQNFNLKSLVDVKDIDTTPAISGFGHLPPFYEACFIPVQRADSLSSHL
# Description: as §1
# CYP3A2 = target: T3, CYP3A2 (Rattus norvegicus, UniProt P05183); assay: as above; type: in vitro ADME; settings: 100 μM C1632, probe 5 μM midazolam, 30 min, 37°C
# T3 construct: 3.4 mg/ml pooled rat liver microsomes; from tissue; host or cells: pooled rat liver microsomes
# T3 sequence (P05183 1-504): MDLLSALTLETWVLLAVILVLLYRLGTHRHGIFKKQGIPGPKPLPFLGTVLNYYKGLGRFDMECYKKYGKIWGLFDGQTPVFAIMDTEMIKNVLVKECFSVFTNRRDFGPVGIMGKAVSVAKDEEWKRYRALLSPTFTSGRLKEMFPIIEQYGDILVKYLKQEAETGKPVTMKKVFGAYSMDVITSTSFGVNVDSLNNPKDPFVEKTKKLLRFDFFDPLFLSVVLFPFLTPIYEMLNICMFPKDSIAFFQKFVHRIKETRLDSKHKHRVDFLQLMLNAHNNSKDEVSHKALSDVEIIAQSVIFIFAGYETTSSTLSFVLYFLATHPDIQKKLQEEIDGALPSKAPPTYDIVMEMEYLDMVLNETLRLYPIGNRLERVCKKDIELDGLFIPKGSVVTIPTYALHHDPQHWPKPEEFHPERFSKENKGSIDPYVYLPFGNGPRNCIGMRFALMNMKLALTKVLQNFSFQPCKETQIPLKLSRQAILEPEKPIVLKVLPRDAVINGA
# Description: as §1
# CYP2D1 = target: T4, CYP2D1 (Rattus norvegicus, UniProt P10633); assay: as above; type: in vitro ADME; settings: 100 μM C1632, probe 10 μM dextromethorphan, 30 min, 37°C
# T4 construct: 3.4 mg/ml pooled rat liver microsomes; from tissue; host or cells: pooled rat liver microsomes
# T4 sequence (P10633 1-504): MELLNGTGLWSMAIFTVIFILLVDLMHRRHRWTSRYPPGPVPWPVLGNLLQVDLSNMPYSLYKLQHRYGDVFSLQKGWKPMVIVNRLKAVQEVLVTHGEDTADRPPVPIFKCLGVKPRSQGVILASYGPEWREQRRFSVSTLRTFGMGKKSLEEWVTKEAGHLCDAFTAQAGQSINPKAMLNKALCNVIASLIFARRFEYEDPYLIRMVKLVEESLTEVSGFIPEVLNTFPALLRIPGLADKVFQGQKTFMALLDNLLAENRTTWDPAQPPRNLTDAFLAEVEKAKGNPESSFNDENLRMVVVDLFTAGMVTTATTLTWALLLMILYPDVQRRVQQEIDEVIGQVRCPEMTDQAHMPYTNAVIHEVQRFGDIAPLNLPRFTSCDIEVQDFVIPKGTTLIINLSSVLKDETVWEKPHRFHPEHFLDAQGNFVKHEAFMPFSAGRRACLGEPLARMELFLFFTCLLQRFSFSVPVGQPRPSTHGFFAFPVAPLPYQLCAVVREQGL
# Description: as §1
# FGFR1 = assay: Western blot of FGFR1 signalling in NSCLC cells; type: cell-based, human; settings: A549 and A549R cells, C1632 5 days, dose-dependent
# Description: The total cell protein was extracted and denaturized at 95°C for 10 min. Samples were separated in SDS‐PAGE gel, then transferred to a PVDF membrane. […] Blots were probed with relevant primary antibodies against FGFR1 (CST), p‐FGFR1 (CST), MAPK (CST), p‐MAPK (CST), FAK (CST), p‐FAK (CST), MMP‐9 (CST), LIN28B (CST), GAPDH (CST), and β‐actin (proteintech) overnight at 4°C, respectively. Then the lanes were detected with HRP‐conjugated secondary antibodies and visualized using WESTAR SUPERNOVA kit ([…]).
smiles,measurement,setting,value
CC(=O)N(C)c1cccc(-c2ccc3nnc(C)n3n2)c1 [C1632],effect on CYP2B1 activity,CYP2B1,significantly inhibit
same,effect on CYP2C11 activity,CYP2C11,significantly inhibit
same,effect on CYP3A2 activity,CYP3A2,significantly inhibit
same,effect on CYP2D1 activity,CYP2D1,significantly inhibit
same,expression of FGFR1 and FGFR1 phosphorylation,FGFR1,inhibited
same,phosphorylation of the downstream kinase MAPK,FGFR1,inhibited
